The source of these data is patent US20030124151A1, “Pamidronate solution” (Mayne Pharma Pty Ltd., priority 2000, published 2003).

For series [1] the following is noted: cited from earlier work.
A short description of series [2]: pH of one percent solution in distilled water. The series is classed as physicochemical.

Molecules are shown by their SMILES.

`NCCC(O)(P(=O)(O)O)P(=O)(O)O` [Pamidronic acid, (3 amino-1-hydroxypropylidene) bisphosphonic acid]: the Solubility in water result in series [1] is given as “practically insoluble”.

Take `NCCC(O)(P(=O)(O)O)P(=O)(O)O` [pamidronate disodium]: the pH of solution result in series [2] was “approximately 8.3”.
